Source: patent US8389002B2, “Anti-cancer medicine both for diagnosing and treating cancer” (Youl Chon Chemical Co., Ltd., priority 2007, dated 2013)

How the values were obtained:
[1] = Pharmacokinetics: change in blood plasma concentration as time goes by; conditions: male, Sprague-Dawley, rat, iv, 10 mg/kg
Procedure: The Sprague Dawley (SD) adult male rat was slightly anesthetized with ketamine and acepromazine. Then, the femoral vein was subject to cannulation with physiological salt solution and the artery was subject to cannulation with polyethylene tubing (PE-50, intramedic, Clay-Adams) in which the physiological salt solution of 40 I.U./mL was filled, for which the heparin treatment was performed. […] At 0 (blank), 1, 5, 15, 30, 60 and 120 minutes after the administration, the blood 0.3 mL was respectively sampled, which was then centrifugally separated (13,000 rpm, 3 minutes) to separate about 0.1 mL of the blood plasma. Then, it was deproteinated and then analyzed with HPLC.
It was used the HPLC method using a reverse phase C-18 column (Shim-pack CLS-ODS, 4.6 mm I.D. 250 mm L., […] particle diameter). To the sampled blood plasma 0.1 mL were applied an internal standard material solution 50 μL ([…] daunomycin), the methanol 100 μL and the ethyl acetate 1.0 mL. The mixture solution was subject to vortexing for 3 minutes and centrifugally separated for 3 minutes (3,000 rpm) to take the organic layer only (1.0 mL), which was then dried with speed-vac. The remnants were re-composed into a moveable phase of 300 μL and 100 μL of which was then directly injected to a HPLC system. As the moveable phase of the HPLC system, a solution of the deionized water (pH=2.5 by phosphoric acid):acetonitrile=6:4 was used and a flow rate was 1 mL/min. As a HPLC detection method, a fluorescent analysis method was used at 470 nm excitation wavelength and 565 nm emission wavelength. The doxorubicin standard solution for making a calibration curve was made by dissolving it in the methanol so that it became 0.05, 0.1, 0.5, 1 and 3 μg/mL. When preparing a biological sample calibration curve, the standard solution 100 μL of doxorubicin 0.05, 0.1, 0.5, 1 and 3 μg/mL was put instead of methanol 100 μL for pre-treatment. Then, a calibration curve was made from which the doxorubicin in the blood plasma was obtained.

hepatoma = experiment: Tumor growth after administration in hepatoma model rat (MRI); assay type: in vivo; conditions: hepatoma SD-rat, 2 mg/kg tail vein, three times every 5 days, one week after last injection
Procedure: In order to make a hepatoma model, the water in which diethyl nitrosamine was diluted in a ratio of 1:10,000 was supplied to 8 weeks old SD-rat every day for 12 weeks until the tumor was generated. […] It was checked with MRI whether the tumor was after 10 weeks breeding. […] Again, the MRI photographing was made. The phleboclysis was performed three times every 5 days. Then, at one week after the last phleboclysis, the sizes of the tumors were compared through the MRI photographing.

## COc1cccc2c1C(=O)c1c(O)c3c(c(O)c1C2=O)C[C@@](O)(C(=O)CO)C[C@@H]3O[C@H]1C[C@H](N)[C@H](O)[C@H](C)O1 [FD, doxorubicin]
[1]; in vivo
  clearance: 37.9 ± 15.8 mL/min/kg
  half-life: 51.6 ± 34 min
[1]
  AUC: 4850 ng·h/mL
hepatoma
  size of the tumor in MRI photograph: became larger
